This note sets out measurements from patent publication US10723741B1, “DNA polymerase IIIC inhibitors and use thereof” (Acurx Pharmaceuticals, LLC, priority 2018, dated 2020).

Assay type in all cases: cell-based
Test [1] has as its system Staphylococcus aureus NRS384 (MRSA). Briefly: Broth microdilution MIC, S. aureus NRS384 (MRSA). Conditions: Staphylococcus aureus; broth microdilution, 37° C., 20 hours; read-out: MIC NRS 384 (MRSA). In short, it runs like this: (§1)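 Two-fold dilutions from 64 to 0.0625 μg/ml final, 1% DMSO, were inoculated at ~5.0×10^5 cfu/ml in the strain's test medium and kept 20 h at 37 °C in ambient atmosphere. Colonies were grown on MHA, with S. pneumoniae on blood agar under 5% CO2.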
On the technique in general: Dilution methods test growth across graded concentrations, often in twofold steps.

Test [2] deals with Staphylococcus aureus ATCC 29213 (MSSA). The test is described as follows: Broth microdilution MIC, S. aureus ATCC 29213 (MSSA). The conditions noted are these: broth microdilution, 37° C., 20 hours, read-out: MIC S. aureus ATCC 29213 (MSSA). In short, it runs like this:
as §1

Test [3] relates to Enterococcus faecalis ATCC 29212. The test is described as follows: Broth microdilution MIC, E. faecalis ATCC 29212. The conditions noted are these: ATCC29212, broth microdilution, 37° C., 20 hours, read-out: MIC E. faecalis ATCC 29212. In short, it runs like this:
as §1

The subject of test [4] is Enterococcus faecium ATCC 700221 (VRE). Briefly: Broth microdilution MIC, E. faecium ATCC 700221 (VRE). Conditions: Enterococcus faecium; broth microdilution, 37° C., 20 hours; read-out: MIC E. faecium ATCC 700221 (VRE). In short, it runs like this: as §1
Test [5] deals with Streptococcus pneumoniae ATCC 49619. Briefly: Broth microdilution MIC, S. pneumoniae ATCC 49619. The conditions noted are these: ATCC49619, broth microdilution, 37° C., 20 hours, read-out: MIC S. pneumoniae ATCC 49619. In short, it runs like this:
as §1

The test system of test [6] is Bacillus subtilis ATCC 6633. The test is described as follows: Broth microdilution MIC, B. subtilis ATCC 6633. Conditions: ATCC6633, broth microdilution, 37° C., 20 hours, read-out: MIC B. subtilis ATCC 6633. The essentials: as §1
In test [7] the test system is Escherichia coli ATCC 25922. Briefly: Broth microdilution MIC, E. coli ATCC 25922 (MHIIB w & w/o 4 mM EDTA). Conditions: broth microdilution, 37° C., 20 hours; for MIC: Escherichia coli, ATCC25922, without EDTA, read-out: MIC E. coli ATCC 25922; for MIC E. coli ATCC 25922 + 4 mM EDTA: with 4 mM EDTA. In short, it runs like this:
as §1

In brackets after ≈: the same amount, converted by molar mass. A value given as a limit tells only on which side of the number the result lay.

The MIC is the least concentration at which growth counts as inhibited. `Cn1ncc2nc(NCc3cnco3)[nH]c(=O)c21` [Compound 21, 1-Methyl-5-((oxazol-5-ylmethyl)amino)-1H-pyrazolo[4,3-d]pyrimidin-7(6H)-one]: the MIC in test [1], in test [2], in test [3], in test [4], in test [5] and in test [6] was above 64 µg/mL each time. Besides, in test [7], the MIC is above 64 µg/mL. For the same molecule, in test [7], the “MIC E. coli ATCC 25922 + 4 mM EDTA” value is above 64 µg/mL.
Turning to `O=c1[nH]c(NCc2ccc(Cl)c(Cl)c2)nc2cnn(CC(O)CN3CCOCC3)c12` (stereo not drawn) [Compound 289, 5-[(3,4-dichlorophenyl)methylamino]-1-(2-hydroxy-3-morpholino-propyl)-6H-pyrazolo[4,3-d]pyrimidin-7-one], the MIC in test [1] worked out at 32 µg/mL (≈ 70.6 µM); in test [2], 32 µg/mL (≈ 70.6 µM); in test [3] it was 16 µg/mL (≈ 35.3 µM); in test [4] it was 8 µg/mL (≈ 17.6 µM); in test [5], 8 µg/mL (≈ 17.6 µM); in test [6], 8 µg/mL (≈ 17.6 µM). The MIC in test [7] is above 64 µg/mL. Besides, in test [7], the “MIC E. coli ATCC 25922 + 4 mM EDTA” value is above 64 µg/mL.
`Cl.O=c1[nH]c(NCc2ccc(Cl)c(Cl)c2)nc2cnn(CCOCc3nn[nH]n3)c12` [Compound 282, 1-(2-((2H-tetrazol-5-yl)methoxy)ethyl)-5-((3,4-dichlorobenzyl)amino)-1H-pyrazolo[4,3-d]pyrimidin-7(6H)-one hydrochloride]: the MIC in test [1], in test [2], in test [3], in test [4], in test [5] and in test [6] was above 64 µg/mL throughout. The MIC in test [7] was above 64 µg/mL. In addition, the “MIC E. coli ATCC 25922 + 4 mM EDTA” value in test [7] was above 64 µg/mL.
As for `Cl.Cl.O=c1[nH]c(NCc2ccc(Cl)c(Cl)c2)nc2cnn(CCN3CCN(CCO)CC3)c12` [Compound 71, 5-((3,4-Dichlorobenzyl)amino)-1-(2-(4-(2-hydroxyethyl)piperazin-1-yl)ethyl)-1H-pyrazolo[4,3-d]pyrimidin-7(6H)-one dihydrochloride], the minimal inhibitory concentration (MIC) in test [1] amounted to 64 µg/mL; in test [2] it was 32 µg/mL; in test [3], 32 µg/mL; in test [4], 16 µg/mL; in test [5], 4 µg/mL; in test [6], 4 µg/mL. Further, the MIC in test [7] is above 64 µg/mL. Moreover, the “MIC E. coli ATCC 25922 + 4 mM EDTA” value in test [7] was above 64 µg/mL.
For the molecule `Cl.Cl.O=c1[nH]c(NCc2ccc(Cl)c(Cl)c2)nc2cnn(C3CCN(Cc4ccncc4)CC3)c12` [Compound 246, 5-((3,4-Dichlorobenzyl)amino)-1-(1-(pyridin-4-ylmethyl)piperidin-4-yl)-1H-pyrazolo[4,3-d]pyrimidin-7(6H)-one dihydrochloride], the MIC stood at 2 µg/mL in test [1]; 2 µg/mL in test [2]; 4 µg/mL in test [3]; 2 µg/mL in test [4]; 4 µg/mL in test [5]; 1 µg/mL in test [6]. Moreover, the MIC in test [7] was above 64 µg/mL. Also, the “MIC E. coli ATCC 25922 + 4 mM EDTA” value in test [7] was above 64 µg/mL.
Consider `Cc1nnc(CCn2ncc3nc(NCc4ccc(Cl)c(Cl)c4)[nH]c(=O)c32)o1` [Compound 233, 5-((3,4-dichlorobenzyl)amino)-1-(2-(5-methyl-1,3,4-oxadiazol-2-yl)ethyl)-1H-pyrazolo[4,3-d]pyrimidin-7(6H)-one], for which the minimal inhibitory concentration (MIC) in test [1] is 4 µg/mL (≈ 9.52 µM); in test [2], 4 µg/mL (≈ 9.52 µM); in test [3], 4 µg/mL (≈ 9.52 µM); in test [4], 2 µg/mL (≈ 4.76 µM); in test [5], 2 µg/mL (≈ 4.76 µM); in test [6] it was 2 µg/mL (≈ 4.76 µM). The MIC in test [7] was above 64 µg/mL. The “MIC E. coli ATCC 25922 + 4 mM EDTA” value in test [7] was found to be 64 µg/mL.
For `COCc1nnc(CCn2ncc3nc(NCc4ccc(Cl)c(Cl)c4)[nH]c(=O)c32)o1.Cl` [Compound 235, 5-((3,4-dichlorobenzyl)amino)-1-(2-(5-(methoxymethyl)-1,3,4-oxadiazol-2-yl)ethyl)-1H-pyrazolo[4,3-d]pyrimidin-7(6H)-one hydrochloride], the minimal inhibitory concentration (MIC) in test [1] stood at 16 µg/mL; in test [2], 8 µg/mL; in test [3], 8 µg/mL; in test [4] it was 4 µg/mL; in test [5], 8 µg/mL; in test [6], 4 µg/mL. For the same molecule, in test [7], the MIC was above 64 µg/mL. In test [7], the “MIC E. coli ATCC 25922 + 4 mM EDTA” value is above 64 µg/mL.
For `O=c1[nH]c(NCc2ccc(Cl)c(Cl)c2)nc2cnn(C(CO)CO)c12` [Compound 107, 5-((3,4-Dichlorobenzyl)amino)-1-(1,3-dihydroxypropan-2-yl)-1H-pyrazolo[4,3-d]pyrimidin-7(6H)-one], the MIC was above 64 µg/mL in test [1]; above 64 µg/mL in test [2]; above 64 µg/mL in test [3]; above 64 µg/mL in test [4]; 16 µg/mL (≈ 41.6 µM) in test [5]; 32 µg/mL (≈ 83.3 µM) in test [6]. In test [7], the MIC was above 64 µg/mL. Further, the “MIC E. coli ATCC 25922 + 4 mM EDTA” value in test [7] was above 64 µg/mL.
`O=C(O)COCCn1cc2nc(NCc3ccc(Cl)c(Cl)c3)[nH]c(=O)c2n1` [Compound 141, 2-(2-(5-((3,4-Dichlorobenzyl)amino)-7-oxo-6,7-dihydro-2H-pyrazolo[4,3-d]pyrimidin-2-yl)ethoxy)acetic acid]: the MIC in test [1], in test [2], in test [3], in test [4], in test [5] and in test [6] was above 64 µg/mL in each case. The MIC in test [7] is above 64 µg/mL. Also, in test [7], the “MIC E. coli ATCC 25922 + 4 mM EDTA” value was above 64 µg/mL.
For `O=c1[nH]c(NCc2ccc(Cl)c(Cl)c2)nc2c(Br)nn(CCOCCO)c12` [Compound 52, 3-bromo-5-((3,4-dichlorobenzyl)amino)-1-(2-(2-hydroxyethoxy)ethyl)-1H-pyrazolo[4,3-d]pyrimidin-7(6H)-one], the MIC amounted to 4 µg/mL (≈ 8.38 µM) in test [1]; 2 µg/mL (≈ 4.19 µM) in test [2]; 4 µg/mL (≈ 8.38 µM) in test [3]; 2 µg/mL (≈ 4.19 µM) in test [4]; 16 µg/mL (≈ 33.5 µM) in test [5]; 1 µg/mL (≈ 2.1 µM) in test [6]. In test [7], the MIC was above 64 µg/mL. Moreover, in test [7], the “MIC E. coli ATCC 25922 + 4 mM EDTA” value is above 64 µg/mL.
For `Cl.O=c1[nH]c(NCc2ccc(Cl)c(Cl)c2)nc2cnn(CCc3cnccn3)c12` [Compound 124, 5-((3,4-Dichlorobenzyl)amino)-1-(2-(pyrazin-2-yl)ethyl)-1H-pyrazolo[4,3-d]pyrimidin-7(6H)-one hydrochloride], the MIC was determined as 2 µg/mL in test [1]; 4 µg/mL in test [2]; 4 µg/mL in test [3]; 2 µg/mL in test [4]; 8 µg/mL in test [5]; 1 µg/mL in test [6]. In test [7], the MIC was above 64 µg/mL. The “MIC E. coli ATCC 25922 + 4 mM EDTA” value in test [7] is above 64 µg/mL.
With `CN(C)C(=O)C1CN(CCn2ncc3nc(NCc4ccc(Cl)c(Cl)c4)[nH]c(=O)c32)CCO1.Cl` (stereo not drawn) [Compound 72, 4-(2-(5-((3,4-Dichlorobenzyl)amino)-7-oxo-6,7-dihydro-1H-pyrazolo[4,3-d]pyrimidin-1-yl)ethyl)-N,N-dimethylmorpholine-2-carboxamide hydrochloride], the MIC in test [1] came to 16 µg/mL; in test [2], 16 µg/mL; in test [3], 8 µg/mL; in test [4], 8 µg/mL; in test [5], 8 µg/mL; in test [6], 4 µg/mL. Moreover, the MIC in test [7] was above 64 µg/mL. In test [7], the “MIC E. coli ATCC 25922 + 4 mM EDTA” value was above 64 µg/mL.
